What was measured:
[1] = system: multiple myeloma cells (5TGM1) in mice; assay: In vivo multiple myeloma model, mice injected with 5TGM1 cells; settings: 80 μM monensin in drinking water for 5 days
Method: 5TMM mice, a breed of C57BL/KalwRij mice that are sensitive to MM, were injected with 5TGM1 murine MM cell line and blood levels of IgG2B were measured periodically over 32 days by ELISA. Mice were split into 2 groups, the control group received 0.35% ethanol in drinking water while the test group received 80 μM monensin (initially solubilized in 70% ethanol) in drinking water. Mice were sacrificed after 5 days of treatment. Spleens and bone marrow were harvested, homogenized and analyzed by FACS.
In view of the above-results that inhibition of secretion may provide a novel therapeutic opportunity in MM, it was tested whether monensin treatment may inhibit progression of MM disease. To this end, mice were injected with 5TGM1 cells (FIG. 13F) and followed MM progression by monitoring blood levels of IgG2β by ELISA (FIG. 13G). Mice that developed MM were then administered with 80 μM monensin in the drinking water for 5 days.

[2] = system: K48 linked polyubiquitination in the Golgi of RPMI 8226 cells; assay: Western blot against K48-linked polyubiquitin chains of Golgi fractions from RPMI 8226 cells; assay type: cell-based, human; settings: 2 hours of monensin treatment
Method: (A) Quantification of live/dead cells following 48 hours of monensin treatment (2 μM). (B) Quantification of cell death of RPMI-8226 cells over 3 days of treatment with monensin […]. (C) Western blot against K48-linked polyubiquitin chains of Golgi fractions collected from RPMI 8226 cells either untreated or treated with monensin for 2 hrs. (D) XTT assay of untreated HeLa cells following siRNA mediated knockdowns as indicated Pvalue(siPSMD6+siHACE1)=0.002. (E) As in D, treated for 48 hours with monensin (200 nM) Pvalue(siPSMD6+siHACE1)=0.001. (F) Schematic outline of in-vivo experiment. (G) ELISA results of IgG2β levels in blood of mice injected with MM 5TGM1 cells over a period of 32 days. (H) FACS analysis and quantification of multiple myeloma cells (MM) and normal B cells (BC) in spleens of control vs. monensin-treated mice Pvalue(MM monensin)=0.008. (I) FACS analysis and quantification of multiple myeloma cells (MM) and normal B cells (BC) in bone marrow of control vs. monensin-treated mice. Pvalue(MM monensin)=0.001. (J) Spleen sizes of untreated, injected control vs. injected monensin-treated mice and uninjected, untreated mice.
Cells were grown to confluence in 4-15 cm plates before being scraped and homogenized in swelling buffer (Merbl and Kirschner, 2014) using 20 strokes in a kontess dounce homogenizer. […]

[3] = system: proteasomal degradation in Golgi fractions of HEK293 cells; assay: suc-LLVY-AMC proteasome cleavage reporter assay, Golgi fractions; assay type: cell-based, human; settings: Golgi fractions from treated vs untreated cells, 150 minutes
Method: Proteasome cleavage reporter assay Golgi or ER fractions from drug/siRNA treated HEK293 cells were incubated with suc-LLVY-AMC (Biotest) as per protocol and fluorescence levels were measured over time using a Tecan M200 plate reader (Ex: 360 nm, Em: 460 nm).
Quality control of protein substrates requires that unfolded and misfolded proteins be identified, ubiquitylated and finally, degraded. Following the above results, showing K-48 linked polyubiquitylation occurring in the Golgi apparatus and the presence of PSMD6, the final step in quality control was examined i.e., degradation. In order to assess degradation levels in the Golgi, the suc-LLVY-AMC fluorogenic proteasomal substrate assay was utilized, wherein the proteasomal substrate was exposed to Golgi fractions from treated vs. untreated cells. Fluorescence levels were measured over time, indicating the increase in proteasomal cleavage product (FIG. 8A). […] Treatment with the proteotoxic stressors Tunicamycin and monensin caused an increase in Golgi-localized degradation (FIGS. 8B, C), which is consistent with their effect on Golgi protein polyubiquitylation (FIG. 3B). […] In order to assess the involvement of PSMD6 in Golgi associated degradation, cells were transfected with either control siRNA or siRNA targeting PSMD6. The cells were fractionated and subjected to a suc-LLVY-AMC assay for both ER and Golgi fractions from cells treated with either siRNA. […] The results of the proteasomal activity assay point to active proteasomal degradation taking place in the Golgi apparatus. Furthermore, PSMD6 is shown to be a central component of Golgi-associated degradation while also playing a role in ERAD.

CC[C@@]1([C@@H]2O[C@@H]([C@H]3O[C@@](O)(CO)[C@H](C)C[C@@H]3C)C[C@@H]2C)CC[C@H]([C@]2(C)CC[C@]3(C[C@H](O)[C@@H](C)[C@@H]([C@@H](C)[C@@H](OC)[C@H](C)C(=O)O)O3)O2)O1 [monensin]
spleen size smaller than that of control mice [1]: ~30% | CD138+, CD19− multiple myeloma cells in the spleen ([1]; control 22%): 8% | CD138+, CD19− multiple myeloma cells in bone marrow (BM) ([1]; control 62): 25% | CD138-, CD19+ normal B-cell levels ([1]; both spleen and BM): higher than in the control group | K48 linked polyubiquitination in the Golgi [2]: sufficient for induction of K48 linked polyubiquitination | Golgi-localized proteasomal degradation (suc-LLVY-AMC cleavage) [3]: increase
